Assay results from ChEMBL document CHEMBL1201862, “PubChem BioAssay data set” (2004).
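Method: 48-hour compound exposure of cells in 96-well plates, five concentrations, linear interpolation of endpoints. Abbreviation: GI50, concentration required for 50% inhibition of growth.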 Active and inactive are the calls of the source. Cut-off read from the data, not from the text of the source: active = GI50 up to about 1.1 µM and inactive = higher.

Columns and labels:
Assay in all cases: NCI tumour cell line growth inhibition, 48 h
SNB-75 = tested on: SNB-75
UACC-257 = tested on: UACC-257
OVCAR-4 = tested on: OVCAR-4
SF-268 = tested on: SF-268
SN12C = tested on: SN12C
UACC-62 = tested on: UACC-62
OVCAR-3 = tested on: OVCAR-3
SF-539 = tested on: SF-539
HCT-15 = tested on: HCT-15
BT-549 = tested on: BT-549
SK-OV-3 = tested on: SK-OV-3
HCC 2998 = tested on: HCC 2998
K562 = tested on: K562
TK-10 = tested on: TK-10
COLO 205 = tested on: COLO 205
M14 = tested on: M14
HL-60 = tested on: HL-60
U-251 = tested on: U-251
CCRF-CEM = tested on: CCRF-CEM
NCI-H23 = tested on: NCI-H23
OVCAR-8 = tested on: OVCAR-8
MDA-N = tested on: MDA-N
SNB-19 = tested on: SNB-19
SR = tested on: SR
HCT-116 = tested on: HCT-116
A549 = tested on: A549
NCI-H226 = tested on: NCI-H226
UO-31 = tested on: UO-31
DU-145 = tested on: DU-145
IGROV-1 = tested on: IGROV-1
SK-MEL-2 = tested on: SK-MEL-2
MDA-MB-435 = tested on: MDA-MB-435
RXF 393 = tested on: RXF 393
MOLT-4 = tested on: MOLT-4
SK-MEL-28 = tested on: SK-MEL-28
RPMI-8226 = tested on: RPMI-8226
PC-3 = tested on: PC-3
CAKI-1 = tested on: CAKI-1
SW-620 = tested on: SW-620
HOP-92 = tested on: HOP-92
Hs-578T = tested on: Hs-578T
MCF7 = tested on: MCF7
KM12 = tested on: KM12
T47D = tested on: T47D
HOP-62 = tested on: HOP-62
NCI-H460 = tested on: NCI-H460
NCI/ADR-RES = tested on: NCI/ADR-RES
LOX IMVI = tested on: LOX IMVI
ACHN = tested on: ACHN
A498 = tested on: A498
OVCAR-5 = tested on: OVCAR-5
MDA-MB-231 = tested on: MDA-MB-231
HT-29 = tested on: HT-29
SK-MEL-5 = tested on: SK-MEL-5
NCI-H522 = tested on: NCI-H522
EKVX = tested on: EKVX
SF-295 = tested on: SF-295
786-0 = tested on: 786-0

O=C(OCc1ccccc1)N1c2cc([N+](=O)[O-])ccc2C(=O)N2CCC[C@H]2C1O (stereo partly drawn)
GI50 (SNB-75): > 100 µM (inactive)
GI50 (UACC-257): > 100 µM (inactive)
GI50 (OVCAR-4): > 100 µM (inactive)
GI50 (SF-268): > 100 µM (inactive)
GI50 (SN12C): > 100 µM (inactive)
GI50 (UACC-62): > 100 µM (inactive)
GI50 (OVCAR-3): > 100 µM (inactive)
GI50 (SF-539): > 100 µM (inactive)
GI50 (HCT-15): > 100 µM
GI50 (BT-549): > 100 µM (inactive)
GI50 (SK-OV-3): > 100 µM (inactive)
GI50 (HCC 2998): > 100 µM (inactive)
GI50 (K562): > 100 µM (inactive)
GI50 (TK-10): > 100 µM (inactive)
GI50 (COLO 205): > 100 µM (inactive)
GI50 (M14): > 100 µM (inactive)
GI50 (HL-60): > 100 µM (inactive)
GI50 (U-251): > 100 µM (inactive)
GI50 (CCRF-CEM): > 100 µM (inactive)
GI50 (NCI-H23): > 100 µM (inactive)
GI50 (OVCAR-8): > 100 µM (inactive)
GI50 (MDA-N): > 100 µM (inactive)
GI50 (SNB-19): > 100 µM (inactive)
GI50 (SR): > 100 µM (inactive)
GI50 (HCT-116): > 100 µM (inactive)
GI50 (A549): > 100 µM (inactive)
GI50 (NCI-H226): > 100 µM (inactive)
GI50 (UO-31): > 100 µM (inactive)
GI50 (DU-145): > 100 µM (inactive)
GI50 (IGROV-1): > 100 µM (inactive)
GI50 (SK-MEL-2): > 100 µM (inactive)
GI50 (MDA-MB-435): > 100 µM (inactive)
GI50 (RXF 393): > 100 µM (inactive)
GI50 (MOLT-4): > 100 µM (inactive)
GI50 (SK-MEL-28): > 100 µM (inactive)
GI50 (RPMI-8226): > 100 µM (inactive)
GI50 (PC-3): > 100 µM (inactive)
GI50 (CAKI-1): > 100 µM (inactive)
GI50 (SW-620): > 100 µM (inactive)
GI50 (HOP-92): > 100 µM (inactive)
GI50 (Hs-578T): > 100 µM (inactive)
GI50 (MCF7): > 100 µM (inactive)
GI50 (KM12): > 100 µM (inactive)
GI50 (T47D): > 100 µM (inactive)
GI50 (HOP-62): > 100 µM (inactive)
GI50 (NCI-H460): > 100 µM (inactive)
GI50 (NCI/ADR-RES): > 100 µM (inactive)
GI50 (LOX IMVI): > 100 µM (inactive)
GI50 (ACHN): > 100 µM (inactive)
GI50 (A498): > 100 µM (inactive)
GI50 (OVCAR-5): > 100 µM (inactive)
GI50 (MDA-MB-231): > 100 µM (inactive)
GI50 (HT-29): > 100 µM (inactive)
GI50 (SK-MEL-5): > 100 µM (inactive)
GI50 (NCI-H522): > 100 µM (inactive)
GI50 (EKVX): > 100 µM (inactive)
GI50 (SF-295): > 100 µM (inactive)
GI50 (786-0): > 100 µM (inactive)
